{"source": "patent US20170281772A1", "about": "“A NEURAL SUBSTRATE FOR SUGAR PREFERENCE” (The Trustees of Columbia University in the City of New York, priority 2014, published 2017)", "key": {"[1]": {"tested_on": "neurons in the caudal nucleus of the solitary tract (cNST)", "test": "cFos staining of the caudal nucleus of the solitary tract after drinking the solution", "assay_type": "in vivo, mice", "details": "for cFos labeling of cNST neurons: wild-type animals, water deprived thirty-six hours, 1 mL solution by drinking", "method": "To determine where sugar preference is encoded, applicants screen brain regions for increased expression of Fos, a proxy for neural activity, in animals challenged with sugar but not water or artificial sweetener.\nWild-type animals were water deprived for thirty-six hours and then given access to 1 mL solution of water (FIG. 3A), sucrose (FIG. 3), or artificial sweetener (FIG. 3C). Tasteless (TrpM5 knockout) animals were given water (FIG. 3D) or sucrose (FIG. 3E), The caudal nucleus of the solitary tract was analyzed using cFos staining. […] Green: c-fos antibody staining. Magenta: a neural stain (neurotrace) (FIG. 3A-3D)."}, "[2]": {"tested_on": "neurons in the caudal nucleus of the solitary tract (cNST)", "test": "cFos staining of the nucleus of the solitary tract after direct infusion to the gut", "assay_type": "in vivo", "details": "for Fos expression in the cNST when gavaged: gavage, compared with animals drinking the same solution; for cFos labeling of cNST neurons after gut infusion: wild type animals, 0.5 mL infused directly into the gut", "method": "Wild type animals were infused directly into the gut with 0.5 mL of water (FIG. 4A), sucrose (FIG. 4B), or artificial sweetener (FIG. 4C). […] Green: c-fos antibody staining. Magenta; a neural stain (neurotrace) (FIG. 4A-4C)."}, "[3]": {"test": "two-solution preference behavioral assay, artificial sweetener (AceK) versus sucrose, naive animals", "assay_type": "in vivo, mice", "description": "To explicitly test for sugar preference in mice, applicants developed a simple behavioral assay.\nDuring five minute trials, two groups of five naive animals were presented with an intensely sweet, artificial compound (Acesulfame potassium or AceK) and a less sweet natural sugar (sucrose) . […] Animals were then returned to their home cage and given access to either artificial sweetener (Group 1) or natural sugar (Group 2) for one hour. […] Twenty four hours later, Group 1 was given natural sugar while Group 2 was given artificial sweetener."}, "[4]": {"test": "consumption trials of sucralose with or without MDG in a satiated animal", "assay_type": "in vivo", "details": "32 mM sucralose+0.4 M MDG vs 32 mM sucralose alone, 20 trials", "method": "A satiated animal was given 32 mM sucralose for the first 11 trials, and then given either 32 mM sucralose alone, or 32 mM sucralose+0.4 M MDG. […] Shown are 20 trials."}, "[5]": {"tested_on": "activity in the cNST", "test": "silencing of cNST activity by cannula injection during sucrose exposure, sugar preference formation", "assay_type": "in vivo", "description": "When given a choice between highly concentrated artificial sweetener and a low concentration of natural sweet, animals consume the sweeter substance. However, after one exposure to natural sugar, animals switch their preference to the natural sweet (See FIG. 5). If the cNST is indeed an essential brain center for establishing sugar preference, a prediction would be that silencing the activity of the neurons in this nucleus during exposure to sugar should prevent a preference from forming. To determine if this is the case, applicants implanted a cannula above the cNST of naive animals, waited 2 weeks for recovery, and then assessed the ability of these animals to form a sugar preference. […] Prior to receiving sugar in their home cage, animals were injected with a glutamate receptor antagonist (50 nL of NBQX, […]) to reversibly silence activity in the cNST."}}, "note": "Entries after “also recorded” stand apart in the source; their conditions may differ.", "data": [{"smiles": "CC1=CC(=O)NS(=O)(=O)O1", "note": "[AceK, Acesulfame potassium]", "values": [{"measurement": "cFos labeling of cNST neurons", "setting": "[1]", "value": "almost no labeled cells at all"}, {"measurement": "Fos expression in the cNST when gavaged", "setting": "[2]", "value": "identical"}, {"measurement": "cFos labeling of cNST neurons after gut infusion", "setting": "[2]", "value": "almost no labeled cells at all"}, {"measurement": "initial consumption, AceK versus sucrose", "setting": "[3]; five minute trials, naive animals, before home-cage exposure", "value": "much more AceK than sucrose"}]}, {"smiles": "COC1OC(CO)C(O)C(O)C1O", "note": "[MDG, Alpha-Methyl-D-Glucopyranose]", "values": [{"measurement": "appetitiveness/consumption of sucralose", "setting": "[4]", "value": "dramatically increases the appetitiveness/consumption of sucralose; also recorded: transforms a sucralose solution into the preferred Artificial Sweetener"}]}, {"smiles": "NS(=O)(=O)c1cccc2c1c([N+](=O)[O-])cc1nc(O)c(O)nc12", "note": "[NBQX]", "values": [{"measurement": "formation of sugar preference with the cNST silenced", "setting": "[5]; 50 nL of NBQX, 5 pg/mL, injected above the cNST prior to sugar in home cage, tested twenty-four hours later", "value": "continued to prefer the artificial sweetener"}, {"measurement": "sugar preference formation after washout", "setting": "[5]; after the drug washed out", "value": "regained their ability to form a preference"}, {"measurement": "effect of silencing on sweet taste", "setting": "[5]; short-access assays, same animals", "value": "does not abolish sweet taste"}]}, {"smiles": "OC[C@H]1O[C@@](CO)(O[C@H]2O[C@H](CO)[C@@H](O)[C@H](O)[C@H]2O)[C@@H](O)[C@@H]1O", "note": "[sucrose]", "values": [{"measurement": "cFos labeling of cNST neurons in tasteless animals", "setting": "[1]; TrpM5 knockout animals, compared with wild type", "value": "identical pattern of labeling"}, {"measurement": "cFos labeling of cNST neurons", "setting": "[1]", "value": "robustly labeled"}, {"measurement": "Fos expression in the cNST when gavaged", "setting": "[2]", "value": "identical"}, {"measurement": "cFos labeling of cNST neurons after gut infusion", "setting": "[2]", "value": "robustly labeled"}, {"measurement": "preference between artificial sweetener and sucrose after exposure to sucrose", "setting": "[3]; after one hour home-cage access to natural sugar, final preference test", "value": "animals change preference between artificial sweetener and sucrose after one exposure to sucrose; also recorded: both groups prefer the natural sugar"}]}]}
